Data as given in patent US10457689B2, “Ammonium derivatives, a process for their preparation and pharmaceutical compositions containing them” (LES LABORATOIRES SERVIER, priority 2016, dated 2019).
Structures can show the parent of a compound that is named as a salt.

What was measured:
Mcl-1 protein = Mcl-1 protein (Homo sapiens, UniProt Q07820); experiment: Inhibition of Mcl-1 by the fluorescence polarisation technique; assay type: binding; details: fluorescence polarisation test; read-out: IC50 (M) Mcl-LFP
Mcl-1 protein, sequence (Q07820 whole entry): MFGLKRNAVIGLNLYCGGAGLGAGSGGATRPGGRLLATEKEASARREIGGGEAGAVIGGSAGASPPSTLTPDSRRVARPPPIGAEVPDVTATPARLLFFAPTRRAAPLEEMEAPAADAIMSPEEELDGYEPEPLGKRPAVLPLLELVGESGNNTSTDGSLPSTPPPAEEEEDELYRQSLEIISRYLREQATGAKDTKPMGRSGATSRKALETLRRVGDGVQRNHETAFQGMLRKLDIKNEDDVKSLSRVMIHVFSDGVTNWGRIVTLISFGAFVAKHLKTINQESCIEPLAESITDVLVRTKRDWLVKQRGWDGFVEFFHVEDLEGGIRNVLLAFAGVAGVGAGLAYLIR
Protocol: The relative, binding potency of each compound was determined via Fluorescence Polarisation (FP). The method utilised a Fluorescein labelled ligand (Fluorescein-βAla-Ahx-A-REIGAQLRRMADDLNAQY-OH; mw 2,765) which binds to the Mcl-1 protein (such that Mcl-1 corresponds to the UniProtKB® primary accession number: Q07820) leading to an increased anisotropy measured in milli-polarisation (mP) units using a reader. The addition of a compound which binds competitively to the same site as the ligand will result in a greater proportion of unbound ligand in the system indicated by a decrease in mP units.
An 11 point serial dilution of each compound was prepared in DMSO and 2 μl transferred into flat bottomed, low binding, 384-well plate (final DMSO concentration 5%), 38 μl of buffer (10 mM 4-(2-hydroxyethyl)-1-piperazineethanesolfonic acid [HEPES], 150 mM NaCl, 0.05% Tween 20, pH 7.4), containing the Fluorescein labelled ligand (final concentration 1 nM) and Mcl-1 protein (final concentration 5 nM) was then added.
Assay plates were incubated ˜2 hours at room temperature before FP was measured on a […] Synergy2 reader (Ex. 528 nm, Em. 640 nm, Cut off 510 nm) and mP units calculated. The binding of increasing doses of test compound was expressed as a percentage reduction in mP compared to a window established between ‘5% DMSO only’ and ‘100% inhibition’ controls. 11-point dose response curves were plotted with XL-Fit software using a 4-Parameter Logistic Model (Sigmoidal Dose-Response Model) and the inhibitory concentrations that gave a 50% reduction in mP (IC50) were determined.

[1] = tested on: H929 multiple myeloma tumour line; experiment: In vitro cytotoxicity (MTT); assay type: cell-based; details: 48 hours exposure
Protocol: The cytotoxicity studies were carried out on the H929 multiple myeloma tumour line.
The cells are distributed onto microplates and exposed to the test compound for 48 hours.
The cell viability is then quantified by a colorimetric assay, the Microculture Tetrazolium Assay (Carmichael et al. Cancer Res. 1987, 47, 936-942).

[2] = Homo sapiens, NCI-H929, H929 cells

| Compound | IC50 (Mcl-1 protein) | IC50 ([1]; H929 cells) | IC50 [1, 2] |
| --- | --- | --- | --- |
| 4-[2-(4-{(5Sa)-4-[(1R)-1-carboxy-2-(2-{[2-(2-methoxyphenyl)pyrimidin-4-yl]methoxy}phenyl)ethoxy]-6-(4-fluorophenyl)thieno[2,3-d]pyrimidin-5-yl}-2-chloro-3-methylphenoxy)ethyl]-1-{[(diethylcarbamoyl)oxy]methyl}-1-methylpiperazin-1-ium trifluoroacetate [Example 19] | 1.2e-09 M | 1640 nM | – |
| COc1ccccc1-c1nccc(COc2ccccc2CC(Oc2ncnc3sc(-c4ccc(F)cc4)c(-c4ccc(OCCN5CC[N+](C)(COP(=O)([O-])OCc6ccccc6)CC5)c(Cl)c4C)c23)C(=O)O)n1 [Example 2, benzyl {4-[2-(4-{(5Sa)-4-[(1R)-1-carboxy-2-(2-{[2-(2-methoxyphenyl)pyrimidin-4-yl]methoxy}phenyl)ethoxy]-6-(4-fluorophenyl)thieno[2,3-d]pyrimidin-5-yl}-2-chloro-3-methylphenoxy)ethyl]-1-methylpiperazin-1-ium-1-yl}methyl phosphate] | 9.48e-10 M | – | 10.9 nM |
| COc1ccccc1-c1nccc(COc2ccccc2CC(Oc2ncnc3sc(-c4ccc(F)cc4)c(-c4ccc(OCCN5CC[N+](C)(COP(=O)([O-])O)CC5)c(Cl)c4Br)c23)C(=O)O)n1 [Example 5, {4-[2-(3-bromo-4-{(5Sa)-4-[(1R)-1-carboxy-2-(2-{[2-(2-methoxyphenyl)pyrimidin-4-yl]methoxy}phenyl)ethoxy]-6-(4-fluorophenyl)thieno[2,3-d]pyrimidin-5-yl}-2-chlorophenoxy)ethyl]-1-methylpiperazin-1-ium-1-yl}methyl hydrogen phosphate] | 1.06e-09 M | – | 55.4 nM |
| COc1ccccc1-c1nccc(COc2ccccc2CC(Nc2ncnc3sc(-c4ccc(F)cc4)c(-c4ccc(OCCN5CC[N+](C)(COP(=O)([O-])O)CC5)c(Cl)c4C)c23)C(=O)O)n1 [Example 8, N-[(5Sa)-5-{3-chloro-4-[2-(4-{[(hydroxyphosphinato)oxy]methyl}-4-methylpiperazin-4-ium-1-yl)ethoxy]-2-methylphenyl}-6-(4-fluorophenyl)thieno[2,3-d]pyrimidin-4-yl]-2-{[2-(2-methoxyphenyl)pyrimidin-4-yl]methoxy}-D-phenylalanine] | 9.48e-10 M | – | 229 nM |
| CCN(CC)C(=O)OC(C)[N+]1(C)CCN(CCOc2ccc(-c3c(-c4ccc(F)cc4)sc4ncnc(O[C@H](Cc5ccccc5OCc5ccnc(-c6ccccc6OC)n5)C(=O)O)c34)c(C)c2Cl)CC1 (stereo partly drawn) [Example 21, 4-[2-(4-{(5Sa)-4-[(1R)-1-carboxy-2-(2-{[2-(2-methoxyphenyl)pyrimidin-4-yl]methoxy}phenyl)ethoxy]-6-(4-fluorophenyl)thieno[2,3-d]pyrimidin-5-yl}-2-chloro-3-methylphenoxy)ethyl]-1-{1-[(diethylcarbamoyl)oxy]ethyl}-1-methylpiperazin-1-ium trifluoroacetate] | 1.96e-09 M | 70.4 nM | – |
| COc1ccccc1-c1nccc(COc2ccccc2CC(Oc2ncnc3sc(-c4ccc(F)cc4)c(-c4ccc(OCCN5CC[N+](C)(COC(C)=O)CC5)c(Cl)c4Br)c23)C(=O)O)n1 [Example 25, 1-[(acetyloxy)methyl]-4-[2-(3-bromo-4-{(5Sa)-4-[(1R)-1-carboxy-2-(2-{[2-(2-methoxyphenyl)pyrimidin-4-yl]methoxy}phenyl)ethoxy]-6-(4-fluorophenyl)thieno[2,3-d]pyrimidin-5-yl}-2-chlorophenoxy)ethyl]-1-methylpiperazin-1-ium trifluoroacetate] | 1.07e-09 M | 1.95 nM | – |
| CCOC(=O)OC[N+]1(C)CCN(CCOc2ccc(-c3c(-c4ccc(F)cc4)sc4ncnc(OC(Cc5ccccc5OCc5ccnc(-c6ccccc6OC)n5)C(=O)O)c34)c(Br)c2Cl)CC1 [Example 26, 4-[2-(3-bromo-4-{(5Sa)-4-[(1R)-1-carboxy-2-(2-{[2-(2-methoxyphenyl)pyrimidin-4-yl]methoxy}phenyl)ethoxy]-6-(4-fluorophenyl)thieno[2,3-d]pyrimidin-5-yl}-2-chlorophenoxy)ethyl]-1-{[(ethoxycarbonyl)oxy]methyl}-1-methylpiperazin-1-ium trifluoroacetate] | 9.48e-10 M | 2.29 nM | – |
| CCN(CC)C(=O)OC[N+]1(C)CCN(CCOc2ccc(-c3c(-c4ccc(F)cc4)sc4ncnc(OC(Cc5ccccc5OCc5ccnc(-c6ccccc6OC)n5)C(=O)O)c34)c(Br)c2Cl)CC1 [Example 27, 1-[2-(3-bromo-4-{(5Sa)-4-[(1R)-1-carboxy-2-(2-{[2-(2-methoxyphenyl)pyrimidin-4-yl]methoxy}phenyl)ethoxy]-6-(4-fluorophenyl)thieno[2,3-d]pyrimidin-5-yl}-2-chlorophenoxy)ethyl]-1-{[(diethylcarbamoyl)oxy]methyl}-1-methylpiperazin-1-ium trifluoroacetate] | 1.17e-09 M | 1900 nM | – |
| CCN(CC)C(=O)OC(C)[N+]1(C)CCN(CCOc2ccc(-c3c(-c4ccc(F)cc4)sc4ncnc(OC(Cc5ccccc5OCc5ccnc(-c6ccccc6OC)n5)C(=O)O)c34)c(Br)c2Cl)CC1 [Example 29, 4-[2-(3-bromo-4-{(5Sa)-4-[(1R)-1-carboxy-2-(2-{[2-(2-methoxyphenyl)pyrimidin-4-yl]methoxy}phenyl)ethoxy]-6-(4-fluorophenyl)thieno[2,3-d]pyrimidin-5-yl}-2-chlorophenoxy)ethyl]-1-{1-[(diethylcarbamoyl)oxy]ethyl}-1-methylpiperazin-1-ium trifluoroacetate] | 1.36e-09 M | 136 nM | – |

The next lines start with results.

| IC50 (Mcl-1 protein) | Compound | IC50 ([1]; H929 cells) | IC50 [1, 2] |
| --- | --- | --- | --- |
| 1.12e-09 M | COc1ccccc1-c1nccc(COc2ccccc2CC(Oc2ncnc3sc(-c4ccc(F)cc4)c(-c4ccc(OCCN5CC[N+](C)(COC(C)=O)CC5)c(Cl)c4C)c23)C(=O)O)n1 [Example 17, 1-[(acetyloxy)methyl]-4-[2-(4-{(5Sa)-4-[(1R)-1-carboxy-2-(2-{[2-(2-methoxyphenyl)pyrimidin-4-yl]methoxy}phenyl)ethoxy]-6-(4-fluorophenyl)thieno[2,3-d]pyrimidin-5-yl}-2-chloro-3-methylphenoxy)ethyl]-1-methylpiperazin-1-ium trifluoroacetate] | 2.15 nM | – |
| 9.48e-10 M | CCOC(=O)OC[N+]1(C)CCN(CCOc2ccc(-c3c(-c4ccc(F)cc4)sc4ncnc(OC(Cc5ccccc5OCc5ccnc(-c6ccccc6OC)n5)C(=O)O)c34)c(C)c2Cl)CC1 [Example 18, 4-[2-(4-{(5Sa)-4-[(1R)-1-carboxy-2-(2-{[2-(2-methoxyphenyl)pyrimidin-4-yl]methoxy}phenyl)ethoxy]-6-(4-fluorophenyl)thieno[2,3-d]pyrimidin-5-yl}-2-chloro-3-methylphenoxy)ethyl]-1-{[(ethoxycarbonyl)oxy]methyl}-1-methylpiperazin-1-ium] | – | 1.74 nM |
| 9.48e-10 M | COc1ccccc1-c1nccc(COc2ccccc2CC(Oc2ncnc3sc(-c4ccc(F)cc4)c(-c4ccc(OCCN5CC[N+](C)(Cc6oc(=O)oc6C)CC5)c(Cl)c4C)c23)C(=O)O)n1 [Example 22, 4-[2-(4-{(5Sa)-4-[(1R)-1-carboxy-2-(2-{[2-(2-methoxyphenyl)pyrimidin-4-yl]methoxy}phenyl)ethoxy]-6-(4-fluorophenyl)thieno[2,3-d]pyrimidin-5-yl}-2-chloro-3-methylphenoxy)ethyl]-1-methyl-1-[(5-methyl-2-oxo-1,3-dioxol-4-yl)methyl]piperazin-1-ium trifluoroacetate] | 2.23 nM | – |
| 1.04e-09 M | COc1ccccc1-c1nccc(COc2ccccc2CC(Oc2ncnc3sc(-c4ccc(F)cc4)c(-c4ccc(OCCN5CC[N+](C)(COC(=O)C(C)(C)C)CC5)c(Cl)c4C)c23)C(=O)O)n1 [Example 24, 4-[2-(4-{(5Sa)-4-[(1R)-1-carboxy-2-(2-{[2-(2-methoxyphenyl)pyrimidin-4-yl]methoxy}phenyl)ethoxy]-6-(4-fluorophenyl)thieno[2,3-d]pyrimidin-5-yl}-2-chloro-3-methylphenoxy)ethyl]-1-{[(2,2-dimethylpropanoyl)oxy]methyl}-1-methylpiperazin-1-ium trifluoroacetate] | 2.52 nM | – |
| 9.48e-10 M | COc1ccccc1-c1nccc(COc2ccccc2C[C@@H](Oc2ncnc3sc(-c4ccc(F)cc4)c(-c4ccc(OCCN5CC[N+](C)(Cc6oc(=O)oc6C)CC5)c(Cl)c4Br)c23)C(=O)O)n1 [Example 30, 4-[2-(3-bromo-4-{(5Sa)-4-[(1R)-1-carboxy-2-(2-{[2-(2-methoxyphenyl)pyrimidin-4-yl]methoxy}phenyl)ethoxy]-6-(4-fluorophenyl)thieno[2,3-d]pyrimidin-5-yl}-2-chlorophenoxy)ethyl]-1-methyl-1-[(5-methyl-2-oxo-1,3-dioxol-4-yl)methyl]piperazin-1-ium trifluoroacetate] | 2.81 nM | – |
